Assay results taken from PubChem BioAssay (NCI).
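Growth conditions: 96-well plates. Treatment: test compound, 48 hours, 5 concentrations. Analysis: linear interpolation between bracketing concentrations; unreached endpoints set to highest concentration. GI50 is the concentration that inhibits growth by half. TGI marks complete inhibition of growth.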

Tests used:
Assay in all cases: inhibition of tumour cell growth, NCI panel, 48 h
[1] = test system: NCI-H226 lung
[2] = test system: HOP-92 NSCLC
[3] = test system: UACC-62 melanoma
[4] = test system: SK-MEL-5 melanoma
[5] = test system: ACHN renal
[6] = test system: KM12 colon
[7] = test system: 786-0 renal
[8] = test system: SK-MEL-28 melanoma
[9] = test system: K-562 leukemia
[10] = test system: SN12C renal

CN1CCN(c2nc(-c3ccncc3)nc3sc4c(c23)CCCCCC4)CC1 gave a GI50 [1] of 10.4 µM, a TGI [1] of 34.2 µM and a GI50 [2] of 0.654 µM. For the same compound, the TGI [2] was 5.32 µM, the GI50 [3] was 11 µM and the TGI [3] was 24 µM. It also gave a GI50 [4] of 7.94 µM, a TGI [4] of 20.5 µM and a GI50 [5] of 7.99 µM. For the same compound, the TGI [5] was 20.5 µM, the GI50 [6] was 13.4 µM and the TGI [6] was 28 µM. For the same compound, the GI50 [7] was 4.77 µM, the TGI [7] was 20.2 µM and the GI50 [8] was 12.5 µM. It also gave a TGI [8] of 25.1 µM, a GI50 [9] of 3.53 µM and a TGI [9] of 16.3 µM. The GI50 [10] was 5.64 µM and the TGI [10] was 22 µM.

Work on CC1CCC2N(C1)CC1C3(O)CC45OC6(O)C(O)CCC4(C)C6CCC5C3(O)CC(O)C1(O)C2(C)O (configuration not stated) yielded a TGI [1] of over 100 µM, a TGI [2] of over 100 µM and a TGI [3] of over 100 µM. The TGI [4] was over 100 µM, the TGI [5] was over 100 µM and the TGI [6] was over 100 µM. For the same compound, the TGI [7] was over 100 µM, the TGI [8] was over 100 µM and the TGI [9] was over 100 µM. The TGI [10] was over 100 µM.

Compound CC(NC(=O)c1ccccc1)(C(=O)O)C(=O)O has a TGI [1] of over 100 µM, a TGI [2] of over 100 µM and a TGI [3] of over 100 µM. The TGI [4] was over 100 µM, the TGI [5] was over 100 µM and the TGI [6] was over 100 µM. For the same compound, the TGI [7] was over 100 µM, the TGI [8] was over 100 µM and the TGI [9] was over 100 µM. For the same compound, the TGI [10] was over 100 µM.

Compound COc1nc(NC2OC(COC(C)=O)C(OC(C)=O)C(OC(C)=O)C2OC(C)=O)c(-c2csc(N)n2)c(=O)n1C (configuration not stated) has a TGI [1] of over 100 µM, a TGI [2] of over 100 µM and a TGI [3] of over 100 µM. For the same compound, the TGI [4] was over 100 µM, the TGI [5] was over 100 µM and the TGI [6] was over 100 µM. The TGI [7] was 54.6 µM, the TGI [8] was over 100 µM and the TGI [9] was over 100 µM. The TGI [10] was over 100 µM.

Compound CC(=O)Oc1ccc(/C=N/NC(N)=S)nc1 has a GI50 [1] of 22.1 µM, a TGI [1] of 74.3 µM and a GI50 [2] of 12.9 µM. The TGI [2] was over 100 µM, the GI50 [3] was 4.36 µM and the TGI [3] was over 100 µM. The GI50 [4] was 3.38 µM, the TGI [4] was 23.4 µM and the GI50 [5] was 3.49 µM. For the same compound, the TGI [5] was over 100 µM, the GI50 [6] was 4.82 µM and the TGI [6] was over 100 µM. It also gave a GI50 [7] of 3.53 µM, a TGI [7] of 16.1 µM and a GI50 [8] of 25.5 µM. It also gave a TGI [8] of over 100 µM, a GI50 [9] of 6 µM and a TGI [9] of over 100 µM. It also gave a GI50 [10] of 4.06 µM and a TGI [10] of over 100 µM.

COc1ccc(S(=O)(=O)N(C)CC(=O)O)cc1 was tested, and the TGI [1] was over 100 µM, the TGI [2] was over 100 µM and the TGI [3] was over 100 µM. The TGI [4] was over 100 µM, the TGI [5] was over 100 µM and the TGI [6] was over 100 µM. It also gave a TGI [7] of over 100 µM, a TGI [8] of over 100 µM and a TGI [9] of over 100 µM. For the same compound, the TGI [10] was over 100 µM.

COc1ccc(CCN=C2CCC(C(=O)NCCc3ccc(OC)c(OC)c3)N2)cc1OC (configuration not stated) showed a TGI [1] of over 100 µM, a TGI [2] of over 100 µM and a TGI [3] of over 100 µM. For the same compound, the TGI [4] was over 100 µM, the TGI [5] was over 100 µM and the TGI [6] was over 100 µM. It also gave a TGI [7] of over 100 µM, a TGI [8] of over 100 µM and a TGI [9] of over 100 µM. The TGI [10] was over 100 µM.

In the case of C[N+](C)(C)CC1CCCC(C[N+](C)(C)C)C1O (configuration not stated), the TGI [1] is reported as over 100 µM, the TGI [2] is reported as over 100 µM and the TGI [3] is reported as over 100 µM. The TGI [4] was over 100 µM, the TGI [5] was over 100 µM and the TGI [6] was over 100 µM. For the same compound, the TGI [7] was over 100 µM, the TGI [8] was over 100 µM and the TGI [9] was over 100 µM. It also gave a TGI [10] of over 100 µM.

O=C(NCCCCCCCNC(=O)OCc1ccc2c(Cl)cc(Cl)c(O)c2n1)OCc1ccc2c(Cl)cc(Cl)c(O)c2n1 gave a GI50 [1] of 0.557 µM, a TGI [1] of 1.59 µM and a GI50 [2] of 1.07 µM. For the same compound, the TGI [2] was 2.71 µM, the GI50 [3] was 0.845 µM and the TGI [3] was 2.13 µM. It also gave a GI50 [4] of 0.966 µM, a TGI [4] of 2.26 µM and a GI50 [5] of 0.26 µM. For the same compound, the TGI [5] was 0.698 µM, the GI50 [6] was 1.18 µM and the TGI [6] was 2.87 µM. The GI50 [7] was 1.4 µM, the TGI [7] was 2.89 µM and the GI50 [8] was 1.17 µM. The TGI [8] was 2.42 µM, the GI50 [9] was 0.319 µM and the TGI [9] was 4.41 µM. For the same compound, the GI50 [10] was 0.774 µM and the TGI [10] was 2.17 µM.

O=C(c1ccc(Cl)cc1)C1OC12C(=O)Nc1ccccc12 (configuration not stated) gave a TGI [1] of 40.7 µM, a TGI [2] of 30 µM and a TGI [3] of 32.3 µM. It also gave a TGI [4] of 24.6 µM, a TGI [5] of 28.5 µM and a TGI [6] of 32.5 µM. The TGI [7] was 26.9 µM, the TGI [8] was 29.5 µM and the TGI [9] was 11.2 µM. It also gave a TGI [10] of 19.3 µM.

Nc1[nH]c(=O)ncc1CO was tested, and the GI50 [1] was over 100 µM, the TGI [1] was over 100 µM and the GI50 [2] was over 100 µM. It also gave a TGI [2] of over 100 µM, a GI50 [3] of over 100 µM and a TGI [3] of over 100 µM. For the same compound, the GI50 [4] was over 100 µM, the TGI [4] was over 100 µM and the GI50 [5] was over 100 µM. It also gave a TGI [5] of over 100 µM, a GI50 [6] of over 100 µM and a TGI [6] of over 100 µM. The GI50 [7] was over 100 µM, the TGI [7] was over 100 µM and the GI50 [8] was over 100 µM. For the same compound, the TGI [8] was over 100 µM, the GI50 [9] was over 100 µM and the TGI [9] was over 100 µM. It also gave a GI50 [10] of over 100 µM and a TGI [10] of over 100 µM.

Compound COc1cnc2cc(C(=O)O)c3ccccc3c2c1 has a TGI [1] of over 100 µM, a TGI [2] of over 100 µM and a TGI [3] of over 100 µM. The TGI [4] was over 100 µM, the TGI [5] was over 100 µM and the TGI [6] was over 100 µM. It also gave a TGI [7] of over 100 µM, a TGI [8] of over 100 µM and a TGI [9] of over 100 µM. The TGI [10] was over 100 µM.

For CCC1CNC(=O)CC1CC(=O)OC (configuration not stated), the TGI [1] was over 100 µM, the TGI [2] was over 100 µM and the TGI [3] was over 100 µM. The TGI [4] was over 100 µM, the TGI [5] was over 100 µM and the TGI [6] was over 100 µM. It also gave a TGI [7] of over 100 µM, a TGI [8] of over 100 µM and a TGI [9] of over 100 µM. It also gave a TGI [10] of over 100 µM.

Work on O=C(Cc1ccccc1)NN1C(=O)/C(=C\c2ccc(O)cc2)SC1=Nc1ccccc1 yielded a TGI [1] of over 100 µM, a TGI [2] of over 100 µM and a TGI [3] of over 100 µM. The TGI [4] was over 100 µM, the TGI [5] was over 100 µM and the TGI [6] was over 100 µM. The TGI [7] was over 100 µM, the TGI [8] was over 100 µM and the TGI [9] was over 100 µM. For the same compound, the TGI [10] was over 100 µM.

Compound O=c1cc(-c2ccccn2)[nH]c2ccc(Cl)cc12 has a GI50 [1] of 46.5 µM, a TGI [1] of over 100 µM and a TGI [2] of over 100 µM. For the same compound, the TGI [3] was over 100 µM, the GI50 [4] was 26.6 µM and the TGI [4] was over 100 µM. It also gave a TGI [5] of over 100 µM, a TGI [6] of over 100 µM and a TGI [7] of over 100 µM. For the same compound, the TGI [8] was over 100 µM, the TGI [9] was over 100 µM and the TGI [10] was over 100 µM.

With O=C1c2ccccc2C(=O)c2nc3ccc(Cl)cc3cc21 the TGI [1] was over 100 µM, the TGI [2] was over 100 µM and the TGI [3] was over 100 µM. It also gave a TGI [4] of over 100 µM, a TGI [5] of over 100 µM and a TGI [6] of over 100 µM. It also gave a TGI [7] of over 100 µM, a TGI [8] of over 100 µM and a TGI [9] of over 100 µM. It also gave a TGI [10] of over 100 µM.

Compound Oc1ccc(Cl)cc1Cc1cc(Cl)ccc1O has a GI50 [1] of 3.28 µM, a TGI [1] of 14.4 µM and a GI50 [2] of 0.801 µM. The TGI [2] was 3.58 µM, the GI50 [3] was 2.77 µM and the TGI [3] was 10.5 µM. The GI50 [4] was 1.62 µM, the TGI [4] was 3.46 µM and the GI50 [5] was 3.33 µM. For the same compound, the TGI [5] was 11.3 µM, the GI50 [6] was 3.06 µM and the TGI [6] was 11.1 µM. For the same compound, the GI50 [7] was 3.85 µM, the TGI [7] was 14.3 µM and the GI50 [8] was 3.52 µM. The TGI [8] was 12.6 µM, the GI50 [9] was 3.3 µM and the TGI [9] was 13.7 µM. For the same compound, the GI50 [10] was 2.8 µM and the TGI [10] was 10.7 µM.
